Assay results: patent US9895077B2, “Method for diagnosing a brain related disorder using brain network activity patterns” (Elminda Ltd., priority 2010, dated 2018)

Assays:
Format in all cases: in vivo, human
ADHD subjects = assay: BNA pattern similarity from EEG data of ADHD subjects before and following treatment with MPH
Excerpt: The BNA patterns shown in FIGS. 6A-D are associated subject-specific BNA patterns constructed from EEG data recorded from a particular ADHD subject. The black dots in FIGS. 6A-D show the locations of the EEG electrodes. The color codes in these BNA patterns are the same as defined above. The subject-specific BNA patterns shown in FIGS. 6A-B describe the association of the ADHD subject to a group of untreated ADHD subjects, and the BNA patterns shown in FIGS. 6C-D describe the association of the ADHD subject to a group of ADHD subjects all treated with methylphenidate (MPH). The subject-specific BNA patterns shown in FIGS. 6A and 6C are based on EEG data recorded from the ADHD subject before any treatment, and subject-specific BNA patterns shown in FIGS. 6B and 6D are based on EEG data recorded from the ADHD subject following a treatment with MPH.
The baseline annotated BNA pattern constructed from the group of untreated ADHD subjects, and the baseline annotated BNA pattern constructed from the same group of subjects, but following treatment with MPH are shown in FIGS. 6E and 6F, respectively.
A BNA pattern similarity was calculated for each of the subject-specific BNA patterns shown in FIGS. 6A-D. The calculated similarity corresponding to the BNA pattern of FIG. 6A is 0.73, the calculated similarity corresponding to the BNA pattern of FIG. 6B is 0.19, the calculated similarity corresponding to the BNA pattern of FIG. 6C is 0.56, and the calculated similarity corresponding to the BNA pattern of FIG. 6D is 0.6.
The BNA patterns shown in FIGS. 7A-D were constructed from EEG data recorded from a different ADHD subject, which was also treated with MPH according to the same protocol as described above with respect to the responder subject of FIGS. 6A-D. The black dots in FIGS. 7A-D show the locations of the EEG electrodes, and the color codes in these BNA patterns is the same as defined above. Thus, the subject-specific BNA patterns shown in FIGS. 7A-B describe the association of the ADHD subject to a group of untreated ADHD subjects, and the BNA patterns shown in FIGS. 7C-D describe the association of the ADHD subject to a group of ADHD subjects all treated with methylphenidate (MPH). The subject-specific BNA patterns shown in FIGS. 7A and 7C are based on EEG data recorded from the ADHD subject before any treatment, and subject-specific BNA patterns shown in FIGS. 7B and 7D are based on EEG data recorded from the ADHD subject following a treatment with MPH.
A BNA pattern similarity was calculated for each of the subject-specific BNA patterns shown in FIGS. 7A-D. The calculated similarity corresponding to the BNA pattern of FIG. 7A is 0, the calculated similarity corresponding to the BNA pattern of FIG. 7B is 0, the calculated similarity corresponding to the BNA pattern of FIG. 7C is 0.06, and the calculated similarity corresponding to the BNA pattern of FIG. 7D is 0.

[1] = tested on: healthy volunteer subjects; assay: BNA pattern analysis of EEG data during working memory test (encoding/retrieval), drug vs placebo; settings: for effect on central and frontal activation in group BNA pattern / effect on fronto-parietal part / connectivity of group BNA pattern: group BNA patterns (FIGS. 10C-D, 10G-H) vs placebo
[2] = tested on: healthy volunteer subjects; assay: BNA pattern analysis of EEG data during auditory oddball task, scopolamine vs placebo; settings: for BNA pattern similarity to placebo group baseline BNA pattern: following scopolamine, oddball task
Excerpt: FIGS. 8A-D show associated subject-specific BNA patterns constructed from EEG data recorded from two healthy volunteer subjects. The black dots in FIGS. 8A-D show the locations of the EEG electrodes, and the color codes in these BNA patterns are the same as defined above. The subject-specific BNA patterns shown in FIGS. 8A-D describe the association of the subjects to a group of healthy subjects following treatment with a placebo drug and while performing an attention task related oddball task.
FIGS. 8A and 8C are subject-specific BNA patterns constructed from EEG data collected from a first subject (FIG. 8A) and a second subject (FIG. 8C) following treatment with a placebo, and FIGS. 8B and 8D are subject-specific BNA patterns constructed from EEG data collected from the first subject (FIG. 8B) and the second subject (FIG. 8D) following treatment with a scopolamine drug. Scopolamine is an anticholinergic drug with inhibitory effect on M2-cholinergic receptors of excited type. It has an inhibitory effect on the cerebral cortex, typically inducing slight-anesthetic effect.
All subjects were administered with Scopolamine 0.4 mg, and Saline serving as a placebo drug, on consecutive days, in a randomized order.
In the auditory oddball target detection test, the subjects were requested to respond to auditory target stimuli that occur infrequently and irregularly within a series of standard stimuli. The standard stimulus was in the form of a 1000 Hz tone, and the target stimulus was in the form of a 2000 Hz tone. The intervals between two successive stimuli (standard or target) were 1.5 seconds. Each subject was exposed to a series of stimuli, of which 80% were standard stimuli and 10% were target stimuli. The additional 10% were background sounds (referred to as “novel stimuli”).
All subjects underwent EEG recordings during the tests. ERPs were recorded using 64 Ag—AgCl active electrodes (ActiveTwo, Biosemi) attached to the scalp by located according to the 10-20 international system, and filled with a conducting gel (Signa, Parker).
Two group BNA patterns (one BNA pattern for the placebo group and one BNA pattern for the scopolamine group), and several subject-specific BNA patterns were constructed according to the teachings of the present embodiments as described in Example 1 above. The similarities between the subject-specific BNA pattern and the group BNA patterns were calculated as described in Example 1 above, except for the following provisions on data selection.
Two types of group BNA patterns were constructed in this example. A first type, referred to herein as a DIFF BNA pattern, described the activity that most differentiated between two groups or two conditions. In this type, data features that appeared in at least 11 subjects out of a maximum number of 15 subjects in one group, but a difference threshold (the number of subjects that had the pattern in one group minus the number of subjects that had the pattern in the other group) of 2 subjects, was used to construct the BNA pattern. […] The SI quantities for this type of BNA patterns were calculated as described in Example 1 above.

[3] = tested on: healthy volunteer subjects; assay: Clinical observation of behavioral endpoint following treatment with scopolamine
Protocol: A BNA pattern similarity was calculated for each of the subject-specific BNA patterns shown in FIGS. 8A-D. The calculated similarities are 0.937, 0.079, 1.0 and 0.94, respectively. It is recognized by the present inventors that these similarity values indicate that the responsivity to scopolamine is high for the first subject (FIGS. 8A and 8B) and low for the second subject (FIGS. 8C and 8D).

In the case of `COC(=O)C(c1ccccc1)C1CCCCN1` (stereo not shown) [MPH, methylphenidate], the “responsiveness of the subject to the treatment, as indicated by similarity values” (ADHD subjects; ADHD subject of FIGS. 6A-D) is reported as “responsive to the treatment”, the “BNA pattern similarity to the baseline BNA pattern for the untreated ADHD group” value (ADHD subjects; ADHD subject of FIGS. 6A-D (FIG. 6B), following a single dose treatment with MPH, before treatment 0.73) is reported as 0.19 and the “BNA pattern similarity to the baseline BNA pattern for the treated ADHD group” value (ADHD subjects; ADHD subject of FIGS. 6A-D (FIG. 6D), following a single dose treatment with MPH, before treatment 0.56) is reported as 0.6. For the same compound, the “responsiveness of the subject to the treatment, as indicated by similarity values” (ADHD subjects; ADHD subject of FIGS. 7A-D) was “not responsive to the treatment”, the “BNA pattern similarity to the group of untreated ADHD subjects” value (ADHD subjects; different ADHD subject of FIGS. 7A-D (FIG. 7B), following treatment with MPH, before treatment 0) was 0 and the “BNA pattern similarity to the group of ADHD subjects treated with MPH” value (ADHD subjects; different ADHD subject of FIGS. 7A-D (FIG. 7D), following treatment with MPH, before treatment 0.06) was 0.
With `CNC1(c2ccccc2Cl)CCCCC1=O` (stereo not shown) [ketamine] the “effect on central and frontal activation in group BNA pattern” value ([1]; working memory test) was “increased central and frontal activation”, the “effect on fronto-parietal part / connectivity of group BNA pattern” value ([1]; working memory test) was “No significant change” and the “effect on right lateralization in group BNA pattern” value ([1]; working memory test, group BNA patterns (FIGS. 10G-H) vs placebo) was “decreased right lateralization”.
In the case of `CN1[C@@H]2C[C@@H](OC(=O)[C@H](CO)c3ccccc3)C[C@H]1[C@@H]1O[C@@H]12` [scopolamine], the “BNA pattern similarity to placebo group baseline BNA pattern” value ([2]; first healthy subject (FIG. 8B), after placebo 0.937) is reported as 0.079, the “responsivity to scopolamine, as indicated by similarity values” ([2]; first subject (FIGS. 8A and 8B)) is reported as “high” and the “number of scopolamine subjects fulfilling the placebo pattern” value ([2]; oddball test, detection of novel stimuli, Delta frequency pattern (FIGS. 29A-D), 14 in placebo group) is reported as 0 subjects. The “number of subjects in the scopolamine group showing the scopolamine pattern (group-subject value)” value ([2]; oddball test, detection of target stimuli, Beta (12-18 Hz) pattern (FIGS. 28A-C), Scopolamine 0.4 mg, 15 subjects, 1 placebo subject) was 12 subjects, the “number of scopolamine subjects fulfilling the placebo pattern” value ([2]; oddball test, detection of target stimuli, Delta frequency pattern (FIGS. 27A-D), Scopolamine 0.4 mg, 15 subjects, 12 in placebo group) was 4 subjects and the pattern differentiation level ([2]; placebo pattern, detection of novel stimuli (FIGS. 29A-D), placebo vs scopolamine group) was 14. The pattern differentiation level ([2]; placebo pattern, detection of target stimuli (FIGS. 27A-D), placebo vs scopolamine group) was 8, the pattern differentiation level ([2]; scopolamine pattern, detection of target stimuli (FIGS. 28A-C), scopolamine vs placebo group) was 11 and the “BNA pattern similarity to placebo group baseline BNA pattern” value ([2]; second healthy subject (FIG. 8D), after placebo 1.0) was 0.94. The “responsivity to scopolamine, as indicated by similarity values” ([2]; second subject (FIGS. 8C and 8D)) was “low”, the “decrease in behavioral endpoint” value ([3]; first subject) was 70% and the “change in behavioral endpoint” value ([3]; second subject) was “no change”. It also gave a pattern differentiation level ([1]; encoding placebo DIFF BNA pattern, placebo vs scopolamine group) of 11, a pattern differentiation level ([1]; encoding scopolamine DIFF BNA pattern, scopolamine vs placebo group) of 10 and a pattern differentiation level ([1]; retrieval placebo DIFF BNA pattern, placebo vs scopolamine group) of 13. For the same compound, the pattern differentiation level ([1]; retrieval scopolamine DIFF BNA pattern, scopolamine vs placebo group) was 14, the “number of scopolamine subjects fulfilling the encoding placebo DIFF BNA pattern” value ([1]; working memory test, encoding process (FIGS. 10A, 32-34), 13 in placebo group) was “Two” and the “number of subjects in the scopolamine group showing the encoding scopolamine DIFF BNA pattern (group-subject value)” value ([1]; working memory test, encoding process (FIGS. 10C, 35A-B), three placebo subjects) was 13 subjects. For the same compound, the “effect on central and frontal activation in group BNA pattern” value ([1]; working memory test) was “extensive compensatory central and frontal activation”, the “effect on fronto-parietal part / connectivity of group BNA pattern” value ([1]; working memory test) was “low connectivity between frontal and parietal regions” and the “number of scopolamine subjects fulfilling the retrieval placebo DIFF BNA pattern” value ([1]; working memory test, retrieval process (FIGS. 10B, 30A-C), 14 in placebo group) was “One”. The “number of subjects in the scopolamine group showing the retrieval scopolamine DIFF BNA pattern (group-subject value)” value ([1]; working memory test, retrieval process (FIGS. 10D, 31A-E), one placebo subject) was 15 subjects.
